Data set [1] relates to TPA-induced ear edema. Nature of the data set: TPA-induced ear edema model. It is filed as in vivo, mouse. Conditions: 0.01% single topical, TPA 0.01%, ear thickness 6 hours after TPA. Here is the method:
Experiment: Three representative compounds, 5-(2-phenylethenyl)-2-1-propyl-1,3-benzenediol, as previously reported, a closely related stilbene derivative (WO 0142231) and compound 39B, a novel compound of the current invention, were assayed against the edema on female mice (Balb/c) aged 10-12 weeks, using 0.01% Calcitriol (a commercial standard) as a positive control. Phorbol-12-myristate-13-acetate (TPA) was used as the edema inducer. TPA and the test compounds were all dissolved in 100% ethanol and 20 μl applied on the right ear of the mouse with six mice per group. The TPA concentration used was 0.01% (w/v). Ear thickness was measured 6 hours after TPA treatment to determine if edema was decreased. In each experiment replicated groups of TPA treated mice were treated with either 5-(2-phenylethenyl)-2-1-propyl-1,3-benzenediol, Calcitriol, compound 39B or only ethanol, and the level of inhibition was obtained by measuring the thickness of the ear and expressing the difference in thickness of the treated ear from that of the ethanol treated ear, as a percentage.

Data set [2] relates to Human keratinocytes. Nature of the data set: Human keratinocyte proliferation (MTT). It counts as cell-based. Conditions: for IC50: Homo sapiens, Keratinocyte, in the presence of IFN-γ, MTT after 48 hours. How it is done:
Human keratinocytes were cultured in the presence of IFN-γ and titrated concentrations of drug or the vehicle. The MTT assay was performed after 48 hours of culture.

In data set [3] the test system is human PBMC. Briefly: Proliferation of PHA-stimulated human PBMC (MTT). Conditions: for IC50: MTT after 48 hours. It counts as cell-based. Here is the method: (§1) (a). Effect on proliferation and IFN-γ production of human peripheral blood mononuclear cells (PBMC) stimulated by phytochemagglutinin (PHA).
(§2) Experiment: PBMC were cultured with PHA and cultured with titrated concentrations of compounds or solvent, or media alone using standard cell culture techniques. The MTT assay was performed after 48 hours of culture. Supernatants were collected after 48 hours of culture and levels of IFN-γ were assayed by ELISA.

The subject of data set [4] is IFN-γ. Briefly: IFN-γ production by PHA-stimulated human PBMC (ELISA). Particulars: for IC50: PHA-stimulated human PBMC, supernatant after 48 hours, ELISA. It counts as cell-based. Here is the method: as §1, §2
On the technique in general: ELISA stands for enzyme-linked immunosorbent assay.

For data set [5], the system named is TNF-α. Briefly: Endotoxemia mouse model, serum TNF-α after LPS. It counts as in vivo. Particulars: for TNF-α: serum 150 min after LPS 40 mg/kg IP, compounds 25 mg/kg then 3 x 12.5 mg/kg IP (dexamethasone 0.4 then 3 x 0.2 mg/kg). The text has this:
The in vivo endotoxemia model used in these studies represents a mouse showing the early inflammatory response. Such severe infection can be caused by Gram negative bacteria may lead to the development of septic shock. This toxicity is caused by the lipopolysaccharide (LPS) component of the bacterial cell wall, and injection of LPS into mice can mimic the physiological response typical of the septic shock syndrome. LPS-mediated toxicity is due to the release of cytokines such as TNF-α, IL-1 and IFN-γ by activated macrophages, and the degree of toxicity can be measured by the level of these cytokines in the blood.
Experiment: Test compounds were dissolved and formulated in 50% PEG-400 in water. Female Balb/c mice (˜20 g) were first injected separately intraperitoneally (IP) with 25 mg/kg of each test compound, then challenged by injection with 40 mg/kg lipopolysaccharide (LPS) (IP) 30 minutes later. One drug injection with 12.5 mg/kg of test compound was done at the same time as (LPS challenge and two subsequent sequential injections at 30 minutes intervals. Positive control of dexamethasone was administered in a similar manner starting at 0.4 mg/kg and subsequently 0.2 mg/kg for three additional injections. Mice were sacrificed and blood collected by cardiac puncture 150 minutes after LPS challenge. The serum TNF-α levels were determined by ELISA. Each test group was comprised of six mice. Group of mice injected with the vehicle alone was used as negative control.

Data set [6] relates to acute colon inflammation induced by 5% DSS. Nature of the data set: DSS (5%) acute colon inflammation mouse model, therapeutic experiment. It counts as in vivo. The text has this:
To assess the in vivo efficacy for preventive and therapeutic activities of these compounds on IBD, two experiments were designed and tested using the dextran sulfate sodium (DSS) experimental mouse model for human IBD.
For the therapeutic experiment a further experiment was done to test different doses of 9A on severe, acute intestinal inflammation in mice induced by a high dose of DSS (5%). In this experiment, drug treatment started from day 3 post DSS induction when disease symptom was established. 9A (200 mg/kg or 100 mg/kg) was administered through oral […] once daily and a commercial drug, sulfasalazine (SASP, 100 mg/kg/day) was used as positive control. Experiment was terminated at day 7 and the efficacy was assessed.

Where [7] appears, read: Homo sapiens, PBMC, PHA-stimulated, read-out: IC50 against human PBMC proliferation.
Setting [8] is: Homo sapiens, PBMC, PHA-stimulated, read-out: IC50 against human PBMC proliferation (unit inferred).

Values joined by “and” are separate entries in the source; they are usually repeats but may differ in a detail not shown here. Identical values can stand only once. Like-named read-outs stand apart in the source and are kept apart here.

Consider `C=C1/C(=C\C=C2/CCC[C@]3(C)[C@@H]([C@H](C)CCCC(C)(C)O)CC[C@@H]23)C[C@@H](O)C[C@@H]1O` [Calcitriol, reference compound], for which the “% edema inhibition” value in data set [1] was 31% and 31.2%.

The term melting point denotes the temperature, or range, at which the solid turns liquid. `COc1cc(/C=C/c2ccccc2)cc(OC)c1C(C)C` [Compound 8A, 3,5-Dimethoxy-4-isopropyl-trans-stilbene]: the melting point lay within 64 to 66 °C.

In the case of `CCCc1c(O)cc(C=Cc2ccc(O)cc2)cc1O` [Compound 13B, 5-[2-(4-Hydroxyphenyl)ethenyl]-2-1-propyl-1,3-benzenediol], the “potency on keratinocyte proliferation relative to resveratrol” value in data set [2] is given as “more than 10 times”. Further, the IC50 in data set [2] worked out at 4.3 µM; in data set [3] (setting [7]) it was 2.97 µM; in data set [3] (setting [8]) it was 2.97 µM; in data set [4], 2.55 µM. The “potency in inhibiting PBMC proliferation relative to resveratrol” value in data set [3] turned out to be 20 times. The “potency in inhibiting IFN-γ production relative to resveratrol” value in data set [4] is on record as “more than 15 times”.

For `COc1cc(/C=C/c2ccccc2)cc(OC)c1Br` [Compound 14A, 3,5-Dimethoxy-4-bromo-trans-stilbene], the melting point is 149 to 152 °C.

`CCc1c(OC)cc(/C=C/c2ccccc2)cc1OC` [Compound 15A-a, 3,5-Dimethoxy-4-ethyl-trans-stilbene] had a melting point of 70 to 73 °C.

Compound `CCCCCCCCCCCCCCc1c(OC)cc(/C=C/c2ccccc2)cc1OC` [Compound 15A-b, 3,5-Dimethoxy-4-myristyl-trans-stilbene] gave a melting point of 68 to 70 °C.

Take `CCc1c(O)cc(/C=C/c2ccccc2)cc1O` [Compound 16A-a, 3,5-Dihydroxy-4-ethyl-trans-stilbene]: the melting point lay in the range of 143 to 146 °C.

In turn, `CCCCCCCCCCCCCCc1c(O)cc(/C=C/c2ccccc2)cc1O` [Compound 16A-b, 3,5-Dihydroxy-4-myristyl-trans-stilbene] came in with a melting point of 125 to 128 °C.

On to `CCCc1c(O)cc(C=Cc2ccccc2F)cc1O` [Compound 37B, 5-[2-(2-Fluorophenyl)ethenyl]-2-1-propyl-1,3-benzenediol], for which the “TNF-α levels in mice blood induced by LPS” value in data set [5] (P<0.05) was “decreased significantly”. The compound also gave a TNF-α in data set [5] of 638.9 ± 273.0 pg/mL. Also, the figures for the IC50 in data set [3] (setting [7]) and in data set [4] were 5.62 µM and 3.8 µM, respectively.

As for `CC(C)c1c(O)cc(C=Cc2cccc(F)c2)cc1O` [Compound 38B, 5-[2-(3-Fluorophenyl)ethenyl]-2-1-propylphenyl-1,3-diol], the IC50 in data set [3] (PHA-stimulated, read-out: IC50 against human PBMC proliferation) came to 9.91 µM; in data set [4], 4.29 µM.

`C[C@@H]1C[C@H]2[C@@H]3CCC4=CC(=O)C=C[C@]4(C)[C@@]3(F)[C@@H](O)C[C@]2(C)[C@@]1(O)C(=O)CO` [Dexamethasone, dexamethasone, reference compound] yielded a TNF-α in data set [5] of 281.3 ± 67.2 pg/mL.

Regarding `Oc1ccc(C=Cc2cc(O)cc(O)c2)cc1` [Resveratrol, resveratrol, reference compound], the IC50 in data set [2] was greater than 50 µM; in data set [3] (setting [7]), greater than 50 µM; in data set [3] (setting [8]), greater than 50 µM; in data set [4], 39.2 µM. Besides, the IC50 against human PBMC proliferation in data set [3] (PHA-stimulated, 50 the highest concentration tested) is greater than 50 µM.

Compound `O=C(O)c1cc(/N=N/c2ccc(S(=O)(=O)Nc3ccccn3)cc2)ccc1O` [SASP, sulfasalazine, reference compound] gave a Bleeding score in data set [6] (100 mg/kg oral daily, day seven, mean ± SEM, n = 9, 1 = normal, 2 = bloody stool, 4 = gross bleeding) of 3.6 ± 0.24. Further, in data set [6] (100 mg/kg oral daily, day seven, mean ± SEM, n = 9, 1 = normal, 2 = loose stools, 4 = diarrhea), the Diarrheal score came to 2.8 ± 0.49. The “survival rate vs control treatment” value in data set [6] (5% DSS, treatment from day 3) is reported as “significantly higher survival rate”.

The record behind these values is US7868047B2, “Anti-inflammatory and psoriasis treatment and protein kinase inhibition by hydroxy stilbenes and novel stilbene derivatives and analogues” (Welichem Biotech Inc., priority 1999, dated 2011).
